Laboratory results as given in paper PMC10349806 (Nature Communications, 2023).
“And” between values parts separate entries of the source, which are not always exact repeats. Identical values can stand only once.

Legend:
[1] = tested on: PfCRT variant E121A; assay: CQ uptake assay, oocytes expressing E121A; assay type: cell-based, Plasmodium falciparum
Method: (§1) Site-directed mutagenesis of PfCRT^Dd2 was performed as described using the megaprimer method with overlap extension[21],[54]. The primer pairs used are listed in Supplementary Table 6. Please note that a codon-optimized and oocyte-adapted version of PfCRT^Dd2 was used[22] (Supplementary Fig. 16). The resulting DNA fragment was cloned into the SP64T expression vector and verified by sequencing.
(§2) Oocytes were obtained as described previously. Briefly, adult (>2 years old) female X. laevis frogs (NASCO) were anesthetized in a cooled solution of ethyl 3-amino benzoate methanesulfonate (0.1%, w/v), followed by a surgical removal of parts of the ovary. The ovary lobes were carefully dissected and small pieces of oocytes were incubated in Ca^2+-free ND96 buffer (96 mM NaCl, 2 mM KCl, 1 mM MgCl2 buffered with 5 mM HEPES/NaOH, pH 7.5) supplemented with collagenase D (0.1%, w/v; Roche), BSA (0.5%, w/v), and 9 mm Na2HPO4 at 18 °C for 14-16 h while gentle shaking. After incubation, the oocytes were carefully washed several times with ND96 buffer (96 mM NaCl, 2 mM KCl, 1.8 mM CaCl2, 1 mM MgCl2 buffered with 5 mM HEPES/NaOH, pH 7.5) supplemented with 100 mg l^−1 gentamycin). Defolliculated and healthy-looking stage V-VI oocytes were manually selected for RNA microinjection. The RNA was generated as following: The codon-optimized sequences of PfCRT variants were cloned into the pSP64T expression vector. After vector linearization using the restriction endonucleases BamHI or SalI (New England Biolabs), transcription was performed using the in vitro SP6 mMessage mMachine Kit (Ambion)[34]. The obtained RNA was kept at −80 °C and diluted with nuclease-free water to a concentration of 0.6 μg μl^−1. Precision-bore glass capillary tubes (3.5-inch glass capillaries; Drummond Scientific Co.) were pulled on a vertical puller (P-87 Flaming/Brown micropipette puller, Sutter Instrument Co.), graduated, and placed on a microinjector (Nanoject II Auto-Nanoliter Injector, Drummond Scientific Co.). 50 nl of nuclease-free water alone (control oocytes) or 50 nl of 0.6 μg μl^−1 RNA were injected under stereomicroscopic control. Injected oocytes were incubated for 46–72 h at 18 °C with twice-daily buffer changes before usage in experiments.
(§3) Drug uptake assays were performed as described previously[21],[22],[24],[34]. […] The direction of radio-labeled drug transport is here from the mostly acidic extracellular solution (pH 4.5 or 6.0, as indicated) into the oocyte cytosol (pH ∼ 7.2), which corresponds to the efflux of drug from the acidic digestive vacuole (pH 5.2) into the parasite cytoplasm (pH 7.2). The topology of PfCRT in the oolemma is such that both the N- and C-terminus face the extracellular milieu[3],[22]. In the parasite, the N- and C-terminus face the lumen of the digestive vacuole. CQ uptake kinetics were performed by incubating oocytes in ND96 buffer adjusted to a pH of 4.5, 5.0, 5.5, or 6.0 and supplemented with 50 nM [^3H]CQ and one of 7 different CQ concentrations (10 µM, 50 µM, 100 µM, 200 µM, 300 µM, 400 µM, 500 µM CQ). The reaction was stopped at the 60 min time point, which is in the linear uptake range[22],[34] (Supplementary Fig. 17). […] The radioactivity of each sample was measured using a liquid scintillation analyzer Tri-Carb 4910 TR (PerkinElmer). Oocytes that were injected with water instead of RNA were analyzed in parallel, representing the uptake of a drug by diffusion and/or endogenous permeation pathways. […]

[2] = biological target: T1, PfCRT variant E278A (Plasmodium falciparum, UniProt Q9N623, A220S/E278A/I356T/K76T/M74I/N326S/N75E/Q271E/R371I); assay: CQ uptake assay, oocytes expressing E278A; assay type: cell-based
T1 sequence (Q9N623 1-424 M74I/N75E/K76T/A220S/Q271E/E278A/N326S/I356T/R371I): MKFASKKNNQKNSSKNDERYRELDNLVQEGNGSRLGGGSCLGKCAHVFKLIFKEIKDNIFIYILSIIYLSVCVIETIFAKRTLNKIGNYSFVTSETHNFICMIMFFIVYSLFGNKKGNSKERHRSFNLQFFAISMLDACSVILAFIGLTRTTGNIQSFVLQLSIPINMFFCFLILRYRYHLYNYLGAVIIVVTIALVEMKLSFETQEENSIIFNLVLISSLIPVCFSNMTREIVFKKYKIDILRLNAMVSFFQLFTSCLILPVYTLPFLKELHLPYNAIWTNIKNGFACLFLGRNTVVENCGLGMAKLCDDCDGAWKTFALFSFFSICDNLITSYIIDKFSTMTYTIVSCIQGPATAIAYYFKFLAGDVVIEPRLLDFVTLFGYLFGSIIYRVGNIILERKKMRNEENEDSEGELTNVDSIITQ
Method: as §1, §2, §3

[3] = E121A, 50 µM CQ, 1 h, mean ± SEM
[4] = pH 4.5, single replicates, Fig 1d left
[5] = pH 6.0, single replicates, Fig 1d left
[6] = E278A, 50 µM CQ, 1 h, mean ± SEM

CCN(CC)CCCC(C)Nc1ccnc2cc(Cl)ccc12 (stereo not shown) [CQ, chloroquine]
Activity at pH 4.5 [1, 3]: 1.35 ± 0.09 pmol h-1 oocyte-1
Activity at pH 6.0 [1, 3]: 3.95 ± 0.82 pmol h-1 oocyte-1
R-value ([1]; E121A, CQ transport at pH 4.5 / pH 6.0): 0.43 ± 0.06
E121A transport activity pH 4.5 [1, 4]: 1.13 pmol oocyte-1 h-1 and 1.51 pmol oocyte-1 h-1 and 1.41 pmol oocyte-1 h-1
E121A transport activity pH 6.0 [1, 5]: 5.74 pmol oocyte-1 h-1 and 2.27 pmol oocyte-1 h-1 and 3.83 pmol oocyte-1 h-1
Activity at pH 4.5 [2, 6]: 1.17 ± 0.07 pmol h-1 oocyte-1
Activity at pH 6.0 [2, 6]: 2.21 ± 0.24 pmol h-1 oocyte-1
R-value ([2]; E278A, CQ transport at pH 4.5 / pH 6.0): 0.56 ± 0.10
E278A transport activity pH 4.5 [2, 4]: 1.19 pmol oocyte-1 h-1 and 1.00 pmol oocyte-1 h-1 and 1.31 pmol oocyte-1 h-1
E278A transport activity pH 6.0 [2, 5]: 2.40 pmol oocyte-1 h-1 and 2.59 pmol oocyte-1 h-1 and 1.63 pmol oocyte-1 h-1
